From ChEMBL document CHEMBL1201862, “PubChem BioAssay data set” (2004)
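Where inhibition never reached the appropriate level, the endpoint shown equals the highest concentration tested. Otherwise, values were interpolated linearly from a five-concentration, 48-hour dose response in 96-well plates. GI50 marks 50% less growth.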 Activity calls are given as the source filed them. Cut-off read from the data, not from the text of the source: active = GI50 up to about 1.1 µM and inactive = higher. Square brackets hold non-standard residues; d marks the D form. Peptide text beside a SMILES is read from it. 2Nal = N[CH](Cc1ccc2ccccc2c1)C(=O)O

Tests used:
Assay in all cases: growth of human tumour cells (NCI), 48 h
NCI-H226 = system: NCI-H226
OVCAR-8 = system: OVCAR-8
UO-31 = system: UO-31
SK-MEL-5 = system: SK-MEL-5
ACHN = system: ACHN
EKVX = system: EKVX
CCRF-CEM = system: CCRF-CEM
U-251 = system: U-251
RPMI-8226 = system: RPMI-8226
HOP-92 = system: HOP-92
MOLT-4 = system: MOLT-4
NCI-H23 = system: NCI-H23
RXF 393 = system: RXF 393
MDA-MB-231 = system: MDA-MB-231
SF-295 = system: SF-295
COLO 205 = system: COLO 205
HCC 2998 = system: HCC 2998
786-0 = system: 786-0
SR = system: SR
OVCAR-5 = system: OVCAR-5

| SMILES | GI50 (NCI-H226) | GI50 (OVCAR-8) | GI50 (UO-31) | GI50 (SK-MEL-5) | GI50 (ACHN) | GI50 (EKVX) | GI50 (CCRF-CEM) | GI50 (U-251) | GI50 (RPMI-8226) | GI50 (HOP-92) | GI50 (MOLT-4) | GI50 (NCI-H23) | GI50 (RXF 393) | GI50 (MDA-MB-231) | GI50 (SF-295) | GI50 (COLO 205) | GI50 (HCC 2998) | GI50 (786-0) | GI50 (SR) | GI50 (OVCAR-5) |
| --- | --- | --- | --- | --- | --- | --- | --- | --- | --- | --- | --- | --- | --- | --- | --- | --- | --- | --- | --- | --- |
| Cc1c(C)n(-c2ccccc2)c2nc(S(C)(=O)=O)nc(S(C)(=O)=O)c12 | 21.4 µM (inactive) | 2.19 µM (inactive) | 1.71 µM (inactive) | 12.7 µM (inactive) | 1.57 µM (inactive) | 5.41 µM (inactive) | 0.634 µM (active) | 5.9 µM (inactive) | 2.65 µM (inactive) | 1.61 µM (inactive) | 1.48 µM (inactive) | 7.82 µM (inactive) | 0.475 µM (active) | 5.73 µM (inactive) | 16.9 µM (inactive) | 1.8 µM (inactive) | 23.3 µM (inactive) | 1.28 µM (inactive) | 1 µM (active) | 1.82 µM (inactive) |
| O=c1c2cc(I)ccc2nc(S)n1Cc1ccccc1 | 15.5 µM (inactive) | 23.1 µM (inactive) | 0.543 µM (active) | 6.17 µM (inactive) | 4.49 µM (inactive) | 5.52 µM (inactive) | 5.69 µM (inactive) | 18.4 µM (inactive) | 6.61 µM (inactive) | 8.75 µM (inactive) | > 100 µM (inactive) | 7.59 µM (inactive) | 16.6 µM (inactive) | 13.1 µM (inactive) | 9.02 µM (inactive) | > 100 µM (inactive) | 17.1 µM (inactive) | 11.5 µM (inactive) | 30.7 µM (inactive) | 43.1 µM (inactive) |
| O=c1[nH]c(=O)n(C2OC(CO)C(O)C2O)c2c1CCCC2 (stereo not given) | > 100 µM (inactive) | > 100 µM (inactive) | > 100 µM (inactive) | > 100 µM (inactive) | > 100 µM (inactive) | > 100 µM (inactive) | > 100 µM (inactive) | > 100 µM (inactive) | > 100 µM (inactive) | > 100 µM (inactive) | > 100 µM (inactive) | > 100 µM (inactive) | > 100 µM (inactive) | > 100 µM (inactive) | > 100 µM (inactive) | > 100 µM (inactive) | > 100 µM (inactive) | > 100 µM (inactive) | > 100 µM (inactive) | > 100 µM (inactive) |
| O=C(O)C1(Cc2ccc3c(c2)CCC3)Cc2ccccc2C1 | 91 µM (inactive) | 63.7 µM (inactive) | 46.1 µM (inactive) | > 100 µM (inactive) | 53.7 µM (inactive) | 54.2 µM (inactive) | 62.8 µM (inactive) | 65.8 µM (inactive) | 71.1 µM (inactive) | 29 µM (inactive) | 71.8 µM (inactive) | 67.6 µM (inactive) | 68.2 µM (inactive) | > 100 µM (inactive) | 38.9 µM (inactive) | 30.2 µM (inactive) | 41.9 µM (inactive) | > 100 µM (inactive) | > 100 µM (inactive) | > 100 µM (inactive) |
| CC(C)(C)C(=O)/C=C(\OB(F)F)C(C)(C)C | > 100 µM (inactive) | > 100 µM (inactive) | > 100 µM (inactive) | > 100 µM (inactive) | > 100 µM (inactive) | > 100 µM (inactive) | > 100 µM (inactive) | > 100 µM (inactive) | > 100 µM (inactive) | > 100 µM (inactive) | > 100 µM (inactive) | > 100 µM (inactive) | > 100 µM (inactive) | > 100 µM (inactive) | > 100 µM (inactive) | > 100 µM (inactive) | > 100 µM (inactive) | > 100 µM (inactive) | 84.5 µM (inactive) | > 100 µM (inactive) |
| O=C(CCCN1CCC2(CC1)CC(c1ccccc1)OC2=O)c1ccc(F)cc1 (stereo not given) | 53.7 µM (inactive) | > 100 µM (inactive) | 19.4 µM (inactive) | 15 µM (inactive) | 54.6 µM (inactive) | > 100 µM (inactive) | 41.6 µM (inactive) | 74.5 µM (inactive) | 30.1 µM (inactive) | 26.9 µM (inactive) | 28.3 µM (inactive) | 53.7 µM (inactive) | 66.2 µM (inactive) | 84.5 µM (inactive) | 25 µM (inactive) | 17.3 µM (inactive) | 23.4 µM (inactive) | 24.1 µM (inactive) | 19.6 µM (inactive) | 45.9 µM (inactive) |
| COc1cc(OC)c2c(c1)OC(c1cccnc1)C(c1ccccc1)C2=O (stereo not given) | > 100 µM (inactive) | 59.3 µM (inactive) | 35.8 µM (inactive) | > 100 µM (inactive) | > 100 µM (inactive) | > 100 µM (inactive) | > 100 µM (inactive) | > 100 µM (inactive) | > 100 µM (inactive) | > 100 µM (inactive) | > 100 µM (inactive) | > 100 µM (inactive) | > 100 µM (inactive) | > 100 µM (inactive) | > 100 µM (inactive) | > 100 µM (inactive) | > 100 µM (inactive) | > 100 µM (inactive) | > 100 µM (inactive) | > 100 µM (inactive) |
| CN1CC[C@@]2(c3cccc(O)c3)CC(=O)/C(=C/c3ccccc3)[C@H]1C2.[O-][Cl+3]([O-])([O-])O | 17.8 µM (inactive) | 8.22 µM (inactive) | 12.9 µM (inactive) | 17.8 µM (inactive) | 8.11 µM (inactive) | 14.9 µM (inactive) | 3.12 µM (inactive) | 2.59 µM (inactive) | 2.44 µM (inactive) | 14.9 µM (inactive) | 2.49 µM (inactive) | 16 µM (inactive) | 8.17 µM (inactive) | 6.82 µM (inactive) | 11.3 µM (inactive) | 8.05 µM (inactive) | 10.4 µM (inactive) | 4.44 µM (inactive) | 2.61 µM (inactive) | 14.3 µM (inactive) |
| C[C@H]1C[C@H]2[C@@H]3CCC4=CC(=O)C=C[C@]4(C)C3=CC[C@]2(C)[C@@]1(O)C(=O)CO | > 100 µM (inactive) | > 100 µM (inactive) | > 100 µM (inactive) | 83.4 µM (inactive) | > 100 µM (inactive) | 50.6 µM (inactive) | 66.8 µM (inactive) | > 100 µM (inactive) | 37.2 µM (inactive) | > 100 µM (inactive) | 64 µM (inactive) | 95.1 µM (inactive) | > 100 µM (inactive) | > 100 µM (inactive) | > 100 µM (inactive) | > 100 µM (inactive) | > 100 µM (inactive) | > 100 µM (inactive) | 37.7 µM (inactive) | > 100 µM (inactive) |
| COc1ccc2c(c1OC)OCC(CN(C)C)C2=O (stereo not given) | > 47.1 µM (inactive) | 22.1 µM (inactive) | 18.2 µM (inactive) | 17.7 µM (inactive) | 17.7 µM (inactive) | 25.2 µM (inactive) | 2.15 µM (inactive) | 18.9 µM (inactive) | 2.42 µM (inactive) | 4.99 µM (inactive) | 2.23 µM (inactive) | 17.1 µM (inactive) | 16.6 µM (inactive) | 18.8 µM (inactive) | > 100 µM (inactive) | 8.07 µM (inactive) | 18.7 µM (inactive) | 12.6 µM (inactive) | 1.87 µM (inactive) | 19.1 µM (inactive) |
| COc1ccc(CCCNC(=O)c2cc(OC)c(OC)cc2CCO)cc1OC | > 100 µM (inactive) | > 100 µM (inactive) | > 100 µM (inactive) | > 100 µM (inactive) | > 100 µM (inactive) | > 100 µM (inactive) | > 10 µM (inactive) | > 100 µM (inactive) | > 100 µM (inactive) | > 100 µM (inactive) | > 100 µM (inactive) | > 100 µM (inactive) | > 100 µM (inactive) | > 100 µM (inactive) | > 100 µM (inactive) | > 100 µM (inactive) | > 100 µM (inactive) | > 100 µM (inactive) | > 100 µM (inactive) | > 100 µM (inactive) |
| Nc1ncc(Cc2ccc3c(c2)OCO3)c(N)n1 | > 100 µM (inactive) | > 100 µM (inactive) | > 100 µM (inactive) | > 100 µM (inactive) | > 100 µM (inactive) | > 100 µM (inactive) | > 100 µM (inactive) | > 100 µM (inactive) | > 100 µM (inactive) | 53.5 µM (inactive) | > 100 µM (inactive) | > 100 µM (inactive) | > 100 µM (inactive) | > 100 µM (inactive) | > 100 µM (inactive) | > 100 µM (inactive) | 5.83 µM (inactive) | > 100 µM (inactive) | > 100 µM (inactive) | > 100 µM (inactive) |
| CC(C)C(NC(=O)C(CCCCN)NC(=O)C(Cc1c[nH]c2ccccc12)NC(=O)C(Cc1ccc(O)cc1)NC(=O)C(CS)NC(=O)C(N)Cc1ccc2ccccc2c1)C(=O)NC(CS)C(=O)NC(C(N)=O)C(C)O (stereo not given) (H-[2Nal]CYWKVCT-NH2; configuration not given here) | > 12.5 µM (inactive) | > 12.5 µM (inactive) | > 12.5 µM (inactive) | > 12.5 µM (inactive) | > 12.5 µM (inactive) | > 12.5 µM (inactive) | > 12.5 µM (inactive) | > 12.5 µM (inactive) | > 12.5 µM (inactive) | < 0.01 µM (active) | > 12.5 µM (inactive) | > 12.5 µM (inactive) | > 12.5 µM (inactive) | > 12.5 µM (inactive) | > 12.5 µM (inactive) | > 12.5 µM (inactive) | > 12.5 µM (inactive) | > 12.5 µM (inactive) | > 12.5 µM (inactive) | > 12.5 µM (inactive) |
